Source: BigSolDB 2.1

CC(C)(C)c1ccc(-c2nnc(-c3ccc(-c4ccccc4)cc3)o2)cc1
solubility (mole fraction)
Details | 273.15 K | 283.15 K | 293.15 K | 303.15 K | 313.15 K | 323.15 K | 333.15 K
in DMSO | – | – | 0.00363 | 0.00603 | 0.00886 | 0.0133 | 0.0187
in NMP | – | 0.0542 | 0.0662 | 0.0767 | 0.0954 | 0.115 | –
in THF | – | 0.0524 | 0.0589 | 0.065 | 0.0725 | 0.0817 | –
in acetonitrile | – | 0.00143 | 0.00234 | 0.00313 | 0.00464 | 0.00615 | –
in chlorobenzene | – | 0.0587 | 0.0709 | 0.0834 | 0.0952 | 0.112 | –
in dichloromethane | 0.0818 | 0.0911 | 0.104 | 0.112 | – | – | –
in ethanol | – | 0.00062 | 0.000963 | 0.00148 | 0.00222 | 0.00315 | –
in ethyl acetate | – | 0.0114 | 0.0153 | 0.0223 | 0.03 | 0.0392 | –
in isopropanol | – | 0.000711 | 0.0012 | 0.00174 | 0.00274 | 0.00324 | –
in methanol | – | 0.000412 | 0.000703 | 0.00105 | 0.00185 | 0.00281 | –
in n-hexane | – | 0.000411 | 0.000596 | 0.000996 | 0.00164 | 0.00235 | –
in toluene | – | 0.0303 | 0.04 | 0.0585 | 0.0834 | 0.109 | –
